# From publication PMC8219897 (Water Research X, 2021)
# Where two headings read alike, the source gives them in different places.
# Tests used:
# [1] = system: estrogen-related receptor; settings: recombined yeast strains; ref Li et al. (2010); cited from earlier work
# [2] = molecular target: T1, human estrogen receptor alpha (ERα) (Homo sapiens, UniProt P03372); assay: Yeast estrogen screen; type: cell-based; settings: for Estrogenic effects in single testing (in words): single compounds, Figure SI 5B
# T1 sequence (P03372 1-595): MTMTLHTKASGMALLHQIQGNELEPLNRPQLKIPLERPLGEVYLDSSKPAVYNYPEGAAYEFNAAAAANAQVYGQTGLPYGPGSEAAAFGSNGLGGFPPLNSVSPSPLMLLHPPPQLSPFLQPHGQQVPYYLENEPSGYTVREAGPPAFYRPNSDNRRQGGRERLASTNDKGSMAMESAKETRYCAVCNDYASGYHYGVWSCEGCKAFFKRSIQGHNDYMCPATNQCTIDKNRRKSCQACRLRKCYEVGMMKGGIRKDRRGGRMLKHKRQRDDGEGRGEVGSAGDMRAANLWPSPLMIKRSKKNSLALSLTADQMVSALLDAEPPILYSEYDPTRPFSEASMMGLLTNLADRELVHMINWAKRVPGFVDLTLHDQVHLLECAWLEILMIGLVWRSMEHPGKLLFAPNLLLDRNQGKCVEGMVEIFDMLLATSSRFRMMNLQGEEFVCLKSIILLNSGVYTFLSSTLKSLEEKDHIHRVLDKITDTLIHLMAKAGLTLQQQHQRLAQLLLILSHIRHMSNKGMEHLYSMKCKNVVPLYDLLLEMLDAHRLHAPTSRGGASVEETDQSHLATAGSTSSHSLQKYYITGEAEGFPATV
# P450 aromatase = settings: JEG-3 cells, at 20 µM; ref Perez-Albaladejo et al. (2019); cited from earlier work
# aquatic life = settings: proposed by ECHA; ref ECHA; cited from earlier work
# [3] = muscle, liver and gill tissue of wild fish, Panlong River; ref Wang et al. 2016; cited from earlier work
# Aliivibrio fischeri = type: cell-based; settings: present study
# [4] = system: human placental JEG-3 cells; settings: read-out: EC50, cytotoxic effects, ref Perez-Albaladejo et al. (2019); cited from earlier work
# [5] = aqueous solution, pseudo-first-order kinetic; ref Kovacic et al. 2019; cited from earlier work
# ERα = settings: read-out: IC50, competitive binding to ERα; ref Nakagawa and Suzuki 2001; cited from earlier work
# NIH3T3 cells = settings: read-out: EC50, anti-androgenic effects, ref Kitamura et al. 2005; cited from earlier work
# MCF-7 cells = settings: read-out: EC50, estrogen-like effects, ref Kitamura et al. 2005; cited from earlier work
# zebrafish embryos = settings: ref McCormick et al. (2011); cited from earlier work
# [6] = leachates of UV irradiated coating B
compound,measurement,setting,value
CC(C)(C)c1ccccc1O [2-tert-butylphenol],Effect on estrogen-related receptor gamma,[1],inverse agonistic effects
"Oc1ccccc1-c1ccccc1 [2PP, 2-phenylphenol]",Estrogenic effects in single testing (in words),[2],showed estrogenic potential
"CC(C)(c1ccccc1)c1ccc(O)cc1 [4CP, 4-cumylphenol]",Increase of P450 aromatase activity,P450 aromatase,1.3 fold
same,"Predicted no effect concentration (PNEC), freshwater",aquatic life,14.2 µg/L
same,"Predicted no effect concentration (PNEC), freshwater sediments",aquatic life,3.58 µg/g dry weight
same,Bioconcentration factor (BCF),[3],up to 10
same,Potency compared to BPA in the luminescent bacteria assay,Aliivibrio fischeri,more potent
same,EC50,[4],65 µM
same,EC50,[2],0.212 µM
same,Mean contribution to estrogenicity of the quantified substances (toxic units),[2]; [6],1%
"CC(C)(c1ccc(O)cc1)c1ccc(O)cc1 [BPA, bisphenol A]",Half-life time of degradation under UV irradiation,[5],about 6 h
same,"Predicted no effect concentration (PNEC), freshwater",aquatic life,18 µg/L
same,"Predicted no effect concentration (PNEC), freshwater sediments",aquatic life,1.2 µg/g dry weight
same,IC50,ERα,10 µM
same,Mean contribution to estrogenicity of the quantified substances (toxic units),[2]; leachates of UV irradiated coating A,3%
same,Mean contribution to estrogenicity of the quantified substances (toxic units),[2]; [6],16%
"CC(C)(c1ccc(O)cc1)c1ccc(O)c(O)c1 [BPA-I10, 5-hydroxybisphenol A]",EC50,NIH3T3 cells,14 µM
same,EC50,MCF-7 cells,1.8 µM
same,IC50,ERα,50 µM
same,EC50,"[2]; read-out: EC50, yeast estrogen screen, single compound, present results",31 µM
same,"EC50, yeast estrogen screen","[2]; single compound, present results",7.5 µg/mL
same,Estrogenic effects in single testing (in words),[2],showed estrogenic potential
"COc1ccc(C(C)(C)c2ccc(O)cc2)cc1 [BPA-I11, 4-[1-(4-methoxyphenyl)-1-methylethyl]phenol]",Half maximal lethal concentration,zebrafish embryos,up to 0.66 mg/l
same,Potency compared to BPA in the luminescent bacteria assay,Aliivibrio fischeri,more potent
same,EC50,[2],0.666 µM
same,Mean contribution to estrogenicity of the quantified substances (toxic units),[2]; [6],2%
"CC(C)(c1ccc(OCC(O)CO)cc1)c1ccc(OCC(O)CO)cc1 (stereo not drawn) [Bis-HPPP, bisphenol A bis(2,3-dihydroxypropyl) ether]",Estrogenic effects in single testing (in words),[2],not estrogenic
